Source: the NIST ThermoML archive (doi:10.1021/je9009442)
Numbers after ± are expanded uncertainties.

Experiment: wn = mass fraction of the nth substance listed
Details: Liquid, inclined tube viscometer, w1 = 0.505

FC(F)C(F)(F)F [pentafluoroethane] + FCF
Details | kinematic viscosity [m2/s]
256.15 K | 1.72e-07 ± 1.5e-09
258.15 K | 1.685e-07 ± 1.5e-09
260.15 K | 1.652e-07 ± 1.5e-09
262.15 K | 1.619e-07 ± 1.4e-09
264.15 K | 1.587e-07 ± 1.4e-09
266.15 K | 1.556e-07 ± 1.4e-09
268.15 K | 1.526e-07 ± 1.3e-09
270.15 K | 1.497e-07 ± 1.3e-09
272.15 K | 1.468e-07 ± 1.3e-09
274.15 K | 1.44e-07 ± 1.3e-09
276.15 K | 1.413e-07 ± 1.2e-09
278.15 K | 1.386e-07 ± 1.2e-09
280.15 K | 1.36e-07 ± 1.2e-09
282.15 K | 1.335e-07 ± 1.2e-09
284.15 K | 1.31e-07 ± 1.2e-09
286.15 K | 1.285e-07 ± 1.1e-09
288.15 K | 1.262e-07 ± 1.1e-09
290.15 K | 1.238e-07 ± 1.1e-09
292.15 K | 1.215e-07 ± 1.1e-09
294.15 K | 1.193e-07 ± 1e-09
296.15 K | 1.171e-07 ± 1e-09
298.15 K | 1.15e-07 ± 1e-09
300.15 K | 1.129e-07 ± 1e-09
302.15 K | 1.108e-07 ± 1e-09
304.15 K | 1.088e-07 ± 1e-09
306.15 K | 1.068e-07 ± 9e-10
308.15 K | 1.048e-07 ± 9e-10
310.15 K | 1.029e-07 ± 9e-10
312.15 K | 1.01e-07 ± 9e-10
314.15 K | 9.92e-08 ± 9e-10
316.15 K | 9.73e-08 ± 9e-10
318.15 K | 9.55e-08 ± 8e-10
320.15 K | 9.38e-08 ± 8e-10
322.15 K | 9.2e-08 ± 8e-10
324.15 K | 9.03e-08 ± 8e-10
326.15 K | 8.86e-08 ± 8e-10
328.15 K | 8.7e-08 ± 8e-10
330.15 K | 8.53e-08 ± 8e-10
332.15 K | 8.37e-08 ± 7e-10
334.15 K | 8.21e-08 ± 7e-10
336.15 K | 8.06e-08 ± 7e-10
